Assay results as given in patent US9738634B2, “Heterocyclic amide compound and herbicide” (SYNGENTA PARTICIPATIONS AG, priority 2013, dated 2017).

Key:
Type in all cases: in vivo
[1] = test system: barnyard grass; test: Test Example 1: weedkilling efficacy, preemergent weed treatment in the submerged state; A: barnyard grass; settings: treatment dosage 108.36 g/ha
Summary of the method: (§1)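 Pre-emergence application onto floodwater (4 cm, alluvial soil) on the day of sowing, dose expressed as g/ha from diluted emulsion formulation. Weeds sown with 2.5-leaf transplanted rice as crop; plants held at 25–30 °C in greenhouse and scored against assessment criteria after 3 weeks.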

[2] = test system: bulrush; test: Test Example 1: weedkilling efficacy, preemergent weed treatment in the submerged state; B: bulrush; settings: treatment dosage 108.36 g/ha
Summary of the method: as §1

[3] = test system: oval-leafed pondweed; test: Test Example 1: weedkilling efficacy, preemergent weed treatment in the submerged state; C: oval-leafed pondweed; settings: treatment dosage 108.36 g/ha
Summary of the method: as §1

[4] = test system: transplanted rice; test: Test Example 1: preemergent weed treatment in the submerged state, effect on crop; a: transplanted rice; settings: treatment dosage 108.36 g/ha
Summary of the method: as §1

[5] = test system: barnyard grass; test: Test Example 2: weedkilling efficacy, growth period weed treatment in the submerged state; A: barnyard grass; settings: treatment dosage 108.36 g/ha
Summary of the method: (§2)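 Weeds treated at the 1-2 leaf stage by application of diluted emulsion onto floodwater (4 cm depth, alluvial soil) at specified g/ha. Grown in greenhouse at 25 to 30° C; herbicidal effect rated three weeks after treatment.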

[6] = test system: bulrush; test: Test Example 2: weedkilling efficacy, growth period weed treatment in the submerged state; B: bulrush; settings: treatment dosage 108.36 g/ha
Summary of the method: as §2

[7] = test system: oval-leafed pondweed; test: Test Example 2: weedkilling efficacy, growth period weed treatment in the submerged state; C: oval-leafed pondweed; settings: treatment dosage 108.36 g/ha
Summary of the method: as §2

[8] = test system: crabgrass; test: Test Example 3: weedkilling efficacy through soil treatment; D: crabgrass; settings: treatment dosage 135.45 g/ha
Summary of the method: (§3)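 Crop and weed responses were judged three weeks after a uniform surface spray of the water-diluted emulsion at the given g/ha rate. Seeds sat beneath about 1.5 cm of sterilized diluvial soil, and boxes stood in a greenhouse at 25 to 30° C.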

[9] = test system: green foxtail; test: Test Example 3: weedkilling efficacy through soil treatment; E: green foxtail; settings: treatment dosage 135.45 g/ha
Summary of the method: as §3

[10] = test system: black-grass; test: Test Example 3: weedkilling efficacy through soil treatment; H: black-grass; settings: treatment dosage 135.45 g/ha
Summary of the method: as §3

[11] = test system: Italian ryegrass; test: Test Example 3: weedkilling efficacy through soil treatment; I: Italian ryegrass; settings: treatment dosage 135.45 g/ha
Summary of the method: as §3

[12] = test system: Indian mallow; test: Test Example 3: weedkilling efficacy through soil treatment; K: Indian mallow; settings: treatment dosage 135.45 g/ha
Summary of the method: as §3

[13] = test system: redroot pigweed; test: Test Example 3: weedkilling efficacy through soil treatment; L: redroot pigweed; settings: treatment dosage 135.45 g/ha
Summary of the method: as §3

[14] = test system: fig-leafed goosefoot; test: Test Example 3: weedkilling efficacy through soil treatment; M: fig-leafed goosefoot; settings: treatment dosage 135.45 g/ha
Summary of the method: as §3

[15] = test system: chickweed; test: Test Example 3: weedkilling efficacy through soil treatment; N: chickweed; settings: treatment dosage 135.45 g/ha
Summary of the method: as §3

[16] = test system: birds-eye speedwell; test: Test Example 3: weedkilling efficacy through soil treatment; p: birds-eye speedwell; settings: treatment dosage 135.45 g/ha
Summary of the method: as §3

[17] = test system: directly sown rice; test: Test Example 3: soil treatment, effect on crop; b: directly sown rice; settings: treatment dosage 135.45 g/ha
Summary of the method: as §3

[18] = test system: corn; test: Test Example 3: soil treatment, effect on crop; c: corn; settings: treatment dosage 135.45 g/ha
Summary of the method: as §3

[19] = test system: soybean; test: Test Example 3: soil treatment, effect on crop; d: soybean; settings: treatment dosage 135.45 g/ha
Summary of the method: as §3

[20] = test system: wheat; test: Test Example 3: soil treatment, effect on crop; e: wheat; settings: treatment dosage 135.45 g/ha
Summary of the method: as §3

[21] = test system: crabgrass; test: Test Example 4: weedkilling efficacy by foliar treatment; D: crabgrass; settings: treatment dosage 135.45 g/ha
Description: (§4) Testing of Weedkilling Efficacy by Foliar Treatment
(§5) Sterilized diluvial soil was introduced into 21 cm long, 13 cm wide, 7 cm deep plastic boxes, and seeds of crabgrass, green foxtail, barnyard grass, wild oat, black-grass, Italian ryegrass, common wind-grass, Indian mallow, redroot pigweed, fig-leafed goosefoot, chickweed, catchweed, birds-eye speedwell, corn, soybean, rice, wheat, beet and rapeseed were each spot-sown, and covered with about 1.5 cm of soil, then the plants were grown in a greenhouse at 25 to 30° C.
(§6) After they had grown for 14 days, emulsions of compounds of the present invention prepared according to compounding example 2 were diluted with water to give the specified dosages, and applied uniformly onto the stem and leaf parts with a small sprayer. 3 weeks after the pesticide treatment the effect on each type of plant was investigated on the basis of the assessment criteria of test example 1.
(§7) A: barnyard grass, B: bulrush, C: oval-leafed pondweed, D: crabgrass, E: green foxtail, F: barnyard grass, G: wild oat, H: black-grass, I: Italian ryegrass, J: common wind-grass, K: Indian mallow, L: redroot pigweed, M: fig-leafed goosefoot, N: chickweed, O: catchweed, p: birds-eye speedwell, a: transplanted rice, b: directly sown rice, c: corn, d: soybean, e: wheat, f: beet, g: rapeseed
(§8) Further, pesticide dosage (g/ha) indicates the concentration regulated such that treatment was with only the stated number of grams (g), when calculated per hectare (ha).

[22] = test system: green foxtail; test: Test Example 4: weedkilling efficacy by foliar treatment; E: green foxtail; settings: treatment dosage 135.45 g/ha
Description: as §4, §5, §6, §7, §8

[23] = test system: black-grass; test: Test Example 4: weedkilling efficacy by foliar treatment; H: black-grass; settings: treatment dosage 135.45 g/ha
Description: as §4, §5, §6, §7, §8

[24] = test system: Italian ryegrass; test: Test Example 4: weedkilling efficacy by foliar treatment; I: Italian ryegrass; settings: treatment dosage 135.45 g/ha
Description: as §4, §5, §6, §7, §8

[25] = test system: Indian mallow; test: Test Example 4: weedkilling efficacy by foliar treatment; K: Indian mallow; settings: treatment dosage 135.45 g/ha
Description: as §4, §5, §6, §7, §8

[26] = test system: redroot pigweed; test: Test Example 4: weedkilling efficacy by foliar treatment; L: redroot pigweed; settings: treatment dosage 135.45 g/ha
Description: as §4, §5, §6, §7, §8

[27] = test system: fig-leafed goosefoot; test: Test Example 4: weedkilling efficacy by foliar treatment; M: fig-leafed goosefoot; settings: treatment dosage 135.45 g/ha
Description: as §4, §5, §6, §7, §8

[28] = test system: chickweed; test: Test Example 4: weedkilling efficacy by foliar treatment; N: chickweed; settings: treatment dosage 135.45 g/ha
Description: as §4, §5, §6, §7, §8

[29] = test system: catchweed; test: Test Example 4: weedkilling efficacy by foliar treatment; O: catchweed; settings: treatment dosage 135.45 g/ha
Description: as §4, §5, §6, §7, §8

[30] = test system: birds-eye speedwell; test: Test Example 4: weedkilling efficacy by foliar treatment; p: birds-eye speedwell; settings: treatment dosage 135.45 g/ha
Description: as §4, §5, §6, §7, §8

[31] = test system: directly sown rice; test: Test Example 4: foliar treatment, effect on crop; b: directly sown rice; settings: treatment dosage 135.45 g/ha
Description: as §4, §5, §6, §7, §8

[32] = test system: corn; test: Test Example 4: foliar treatment, effect on crop; c: corn; settings: treatment dosage 135.45 g/ha
Description: as §4, §5, §6, §7, §8

[33] = test system: soybean; test: Test Example 4: foliar treatment, effect on crop; d: soybean; settings: treatment dosage 135.45 g/ha
Description: as §4, §5, §6, §7, §8

[34] = test system: wheat; test: Test Example 4: foliar treatment, effect on crop; e: wheat; settings: treatment dosage 135.45 g/ha
Description: as §4, §5, §6, §7, §8

[35] = test system: beet; test: Test Example 4: foliar treatment, effect on crop; f: beet; settings: treatment dosage 135.45 g/ha
Description: as §4, §5, §6, §7, §8

## CC1=C(c2ccccc2)C(=O)N(C(C)(C)C(=O)Nc2cccc(C)n2)CO1 [B-2-53]
[1]
  A (barnyard grass) weedkilling efficacy grade: 5 (weed kill ratio 90% or more, (practically complete withering))
[2]
  B (bulrush) weedkilling efficacy grade: 5 (weed kill ratio 90% or more, (practically complete withering))
[3]
  C (oval-leafed pondweed) weedkilling efficacy grade: 5 (weed kill ratio 90% or more, (practically complete withering))
[4]
  a (transplanted rice) effect on crop grade: 0 (weed kill ratio 5% or less (practically no effect))
[5]
  A (barnyard grass) weedkilling efficacy grade: 3 (weed kill ratio 40% or more, less than 70%)
[6]
  B (bulrush) weedkilling efficacy grade: 5 (weed kill ratio 90% or more, (practically complete withering))
[7]
  C (oval-leafed pondweed) weedkilling efficacy grade: 4 (weed kill ratio 70% or more, less than 90%)
[8]
  D (crabgrass) weedkilling efficacy grade: 5 (weed kill ratio 90% or more, (practically complete withering))
[9]
  E (green foxtail) weedkilling efficacy grade: 5 (weed kill ratio 90% or more, (practically complete withering))
[10]
  H (black-grass) weedkilling efficacy grade: 5 (weed kill ratio 90% or more, (practically complete withering))
[11]
  I (Italian ryegrass) weedkilling efficacy grade: 5 (weed kill ratio 90% or more, (practically complete withering))
[12]
  K (Indian mallow) weedkilling efficacy grade: 0 (weed kill ratio 5% or less (practically no effect))
[13]
  L (redroot pigweed) weedkilling efficacy grade: 3 (weed kill ratio 40% or more, less than 70%)
[14]
  M (fig-leafed goosefoot) weedkilling efficacy grade: 4 (weed kill ratio 70% or more, less than 90%)
[15]
  N (chickweed) weedkilling efficacy grade: 0 (weed kill ratio 5% or less (practically no effect))
[16]
  P (birds-eye speedwell) weedkilling efficacy grade: 5 (weed kill ratio 90% or more, (practically complete withering))
[17]
  b (directly sown rice) effect on crop grade: 3 (weed kill ratio 40% or more, less than 70%)
[18]
  c (corn) effect on crop grade: 0 (weed kill ratio 5% or less (practically no effect))
[19]
  d (soybean) effect on crop grade: 0 (weed kill ratio 5% or less (practically no effect))
[20]
  e (wheat) effect on crop grade: 2 (weed kill ratio 20% or more, less than 40%)
[21]
  D (crabgrass) weedkilling efficacy grade: 5 (weed kill ratio 90% or more, (practically complete withering))
[22]
  E (green foxtail) weedkilling efficacy grade: 5 (weed kill ratio 90% or more, (practically complete withering))
[23]
  H (black-grass) weedkilling efficacy grade: 5 (weed kill ratio 90% or more, (practically complete withering))
[24]
  I (Italian ryegrass) weedkilling efficacy grade: 5 (weed kill ratio 90% or more, (practically complete withering))
[25]
  K (Indian mallow) weedkilling efficacy grade: 4 (weed kill ratio 70% or more, less than 90%)
[26]
  L (redroot pigweed) weedkilling efficacy grade: 4 (weed kill ratio 70% or more, less than 90%)
[27]
  M (fig-leafed goosefoot) weedkilling efficacy grade: 3 (weed kill ratio 40% or more, less than 70%)
[28]
  N (chickweed) weedkilling efficacy grade: 1 (weed kill ratio 5% or more, less than 20%)
[29]
  O (catchweed) weedkilling efficacy grade: 3 (weed kill ratio 40% or more, less than 70%)
[30]
  P (birds-eye speedwell) weedkilling efficacy grade: 4 (weed kill ratio 70% or more, less than 90%)
[31]
  b (directly sown rice) effect on crop grade: 4 (weed kill ratio 70% or more, less than 90%)
[32]
  c (corn) effect on crop grade: 1 (weed kill ratio 5% or more, less than 20%)
[33]
  d (soybean) effect on crop grade: 4 (weed kill ratio 70% or more, less than 90%)
[34]
  e (wheat) effect on crop grade: 1 (weed kill ratio 5% or more, less than 20%)
[35]
  f (beet) effect on crop grade: 0 (weed kill ratio 5% or less (practically no effect))
